According to publication PMC12140300, “Development of Carbon‐11 Labeled Pyrimidine Derivatives as Novel Positron Emission Tomography (PET) Agents Enabling Brain Sigma‐1 Receptor Imaging” (Advanced Science, 2025):

Key:
[1] = NHP plasma and metabolite analysis; format: in vivo, rhesus macaque; conditions: 30-minute mark
From the text: Understanding the metabolism of [^11C]CNY‐01 is crucial for modeling its distribution kinetics and evaluating safety profiles. Figure 4B illustrates the presence of radiometabolites in arterial plasma following a bolus injection of [^11C]CNY‐01. […] This characteristic makes it well‐suited for kinetic modeling and reducing background signal interference.
During the PET/MR scanning, macaque arterial blood samples were collected synchronously. Metabolite extraction and analysis were based on published methods.^[ [54], [60] ^] Briefly, the blood samples were centrifuged to isolate plasma. Next, protein precipitation was achieved by mixing the plasma with acetonitrile (v/v = 1). The mixture was then centrifuged again to obtain protein‐free plasma. A 1 mL aliquot of the protein‐free supernatant was diluted in 4 mL of deionized water, and the radiometabolites were analyzed by HPLC. HPLC condition: Mobile Phase A: water + 0.1% formic acid; Mobile Phase B: acetonitrile + 0.1% formic acid; separation method = 95/5 – 50/50 A/B from 3–8 min linear gradient; 50/50–5/95 A/B from 8–10 min linear gradient; 5/95 A/B from 10–11 min isocratic; flow rate 2 mL min^−1.

[2] = target: NET (Homo sapiens, UniProt P23975); experiment: PDSP radioligand assay; format: binding
[3] = target: T1, PBR (Rattus norvegicus, UniProt P16257); experiment: PDSP radioligand assay; format: binding
T1 construct: purchased NIMH Psychoactive Drug Screening Program (PDSP)

[4] = target: T2, M4 (Homo sapiens, UniProt P08173); experiment: PDSP radioligand assay; format: binding
T2 construct: purchased NIMH Psychoactive Drug Screening Program (PDSP)

[5] = target: T3, M5 (Homo sapiens, UniProt P08912); experiment: PDSP radioligand assay; format: binding
T3 sequence (P08912 1-532): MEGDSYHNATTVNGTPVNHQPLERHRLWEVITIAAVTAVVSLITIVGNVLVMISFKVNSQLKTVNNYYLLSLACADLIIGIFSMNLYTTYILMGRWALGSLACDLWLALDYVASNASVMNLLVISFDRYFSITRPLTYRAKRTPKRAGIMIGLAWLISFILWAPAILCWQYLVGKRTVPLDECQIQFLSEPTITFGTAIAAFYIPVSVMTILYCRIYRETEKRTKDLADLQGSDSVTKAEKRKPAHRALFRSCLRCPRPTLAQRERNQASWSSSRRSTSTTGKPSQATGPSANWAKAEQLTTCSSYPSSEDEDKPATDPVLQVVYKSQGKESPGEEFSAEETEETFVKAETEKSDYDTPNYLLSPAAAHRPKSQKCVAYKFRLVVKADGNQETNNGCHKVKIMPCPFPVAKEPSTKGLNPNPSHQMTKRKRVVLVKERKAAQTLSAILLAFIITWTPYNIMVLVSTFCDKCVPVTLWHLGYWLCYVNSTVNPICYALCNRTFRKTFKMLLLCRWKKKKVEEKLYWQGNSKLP

[6] = target: T4, SERT (Homo sapiens, UniProt P31645); experiment: PDSP radioligand assay; format: binding
T4 construct: purchased NIMH Psychoactive Drug Screening Program (PDSP)

[7] = target: T5, MOR (Homo sapiens, UniProt P35372); experiment: PDSP radioligand assay; format: binding
T5 construct: purchased NIMH Psychoactive Drug Screening Program (PDSP)
T5 sequence (P35372 whole entry): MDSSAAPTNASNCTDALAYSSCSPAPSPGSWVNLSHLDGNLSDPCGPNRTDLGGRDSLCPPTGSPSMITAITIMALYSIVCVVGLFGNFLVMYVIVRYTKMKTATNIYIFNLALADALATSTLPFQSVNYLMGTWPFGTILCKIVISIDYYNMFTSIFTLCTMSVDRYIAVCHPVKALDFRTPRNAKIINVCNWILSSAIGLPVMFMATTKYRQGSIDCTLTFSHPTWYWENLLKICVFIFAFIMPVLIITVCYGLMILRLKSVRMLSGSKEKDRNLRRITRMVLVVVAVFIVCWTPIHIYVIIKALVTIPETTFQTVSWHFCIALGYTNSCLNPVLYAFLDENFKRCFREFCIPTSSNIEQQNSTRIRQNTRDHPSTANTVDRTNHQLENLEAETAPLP

Chain of NET (P23975 whole entry): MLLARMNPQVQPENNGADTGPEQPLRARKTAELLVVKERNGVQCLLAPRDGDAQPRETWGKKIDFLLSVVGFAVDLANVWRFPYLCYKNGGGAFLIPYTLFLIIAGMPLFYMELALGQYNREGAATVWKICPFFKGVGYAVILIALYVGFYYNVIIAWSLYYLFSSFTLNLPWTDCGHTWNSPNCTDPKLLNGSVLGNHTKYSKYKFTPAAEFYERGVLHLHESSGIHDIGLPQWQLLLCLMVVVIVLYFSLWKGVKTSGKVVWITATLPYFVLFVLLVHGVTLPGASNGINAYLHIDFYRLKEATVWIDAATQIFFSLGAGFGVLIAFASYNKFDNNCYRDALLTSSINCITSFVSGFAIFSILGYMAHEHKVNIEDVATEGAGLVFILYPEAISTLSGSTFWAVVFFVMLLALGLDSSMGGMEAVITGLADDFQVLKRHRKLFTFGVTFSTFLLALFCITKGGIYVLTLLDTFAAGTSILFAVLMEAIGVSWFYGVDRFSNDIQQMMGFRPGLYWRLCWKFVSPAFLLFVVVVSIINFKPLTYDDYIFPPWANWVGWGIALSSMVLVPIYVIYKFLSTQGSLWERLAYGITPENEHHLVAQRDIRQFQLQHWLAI
T4 sequence (P31645 whole entry): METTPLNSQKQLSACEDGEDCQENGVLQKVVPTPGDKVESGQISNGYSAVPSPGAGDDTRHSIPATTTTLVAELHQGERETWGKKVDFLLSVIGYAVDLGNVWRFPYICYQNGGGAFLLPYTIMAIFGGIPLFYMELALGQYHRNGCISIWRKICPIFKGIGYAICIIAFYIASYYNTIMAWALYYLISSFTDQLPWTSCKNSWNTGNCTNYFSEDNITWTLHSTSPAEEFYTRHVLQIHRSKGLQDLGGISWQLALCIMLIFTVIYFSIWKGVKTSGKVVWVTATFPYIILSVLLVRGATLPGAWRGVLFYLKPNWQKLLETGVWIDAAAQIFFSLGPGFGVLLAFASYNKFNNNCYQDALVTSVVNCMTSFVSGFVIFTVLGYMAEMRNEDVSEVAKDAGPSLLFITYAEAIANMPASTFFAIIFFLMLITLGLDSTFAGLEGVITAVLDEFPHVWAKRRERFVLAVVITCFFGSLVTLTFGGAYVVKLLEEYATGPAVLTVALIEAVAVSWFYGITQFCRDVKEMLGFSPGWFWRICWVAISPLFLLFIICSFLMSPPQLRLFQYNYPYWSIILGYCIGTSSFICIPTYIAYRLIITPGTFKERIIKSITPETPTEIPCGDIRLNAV
T2 sequence (P08173 whole entry): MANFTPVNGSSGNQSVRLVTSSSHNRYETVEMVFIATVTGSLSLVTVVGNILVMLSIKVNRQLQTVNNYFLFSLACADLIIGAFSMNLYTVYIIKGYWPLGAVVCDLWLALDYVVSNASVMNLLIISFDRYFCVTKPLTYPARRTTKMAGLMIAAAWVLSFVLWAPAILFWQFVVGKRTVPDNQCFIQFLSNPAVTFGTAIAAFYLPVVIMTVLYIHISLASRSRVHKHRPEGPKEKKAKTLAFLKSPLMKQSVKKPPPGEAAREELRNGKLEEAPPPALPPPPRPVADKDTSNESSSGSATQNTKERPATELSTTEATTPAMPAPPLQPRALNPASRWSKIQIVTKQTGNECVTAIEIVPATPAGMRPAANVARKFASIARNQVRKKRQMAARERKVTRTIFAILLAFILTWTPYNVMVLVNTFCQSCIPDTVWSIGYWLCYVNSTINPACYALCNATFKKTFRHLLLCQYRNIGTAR

Cc1nc(-c2ccc(O[11CH3])cc2)nc(OCCCN2CCCCC2)c1Cl [[^11C]CNY-01]
parent compound present in plasma [1]: over 30%

COc1ccc(-c2nc(C)c(Cl)c(OCCCN3CCCCC3)n2)cc1 [CNY-01, 5‐chloro‐2‐(4‐methoxyphenyl)‐4‐methyl‐6‐(3‐(piperidin‐1‐yl)propoxy)pyrimidine]
Ki [2]: 2100 nM
inhibition at 10 µM [2]: 50.4%
inhibition at 10 µM [3]: 25.8%
inhibition at 10 µM [4]: 20.6%
Ki [5]: > 10000 nM
inhibition at 10 µM [5]: 59.1%
inhibition at 10 µM [6]: 21.8%
inhibition at 10 µM [7]: -16.4%

Cc1nc(-c2ccc(Cl)cc2)nc(OCCCN2CCN(C)CC2)c1Cl [CNY-02, 5‐chloro‐2‐(4‐chlorophenyl)‐4‐methyl‐6‐(3‐(4‐methylpiperazin‐1‐yl)propoxy)pyrimidine]
inhibition at 10 µM [2]: 0.14%
inhibition at 10 µM [3]: 26%
inhibition at 10 µM [4]: 31.1%
Ki [5]: 2500 nM
inhibition at 10 µM [5]: 83.3%
inhibition at 10 µM [6]: 43%
inhibition at 10 µM [7]: -14.4%
